“And” between values parts separate entries of the source, which are not always exact repeats. Identical values can stand only once.
How the values were obtained:
Type in all cases: in vivo
Bedstraw Catchweed [1] = assay: post-emergence herbicide test; conditions: Galium aparine, post-emergence, 0.25 lb/A; read-out: % plant inhibition
Source text: (§1) Topsoil was placed in aluminum pans having holes in the bottom and compacted to a depth of 1.3 to 1.6 cm from the top of the pan. A predetermined number of seeds of each of several dicotyledonous and monocotyledonous annual plant species and/or vegetative propagules for the perennial plant species were placed on the soil and pressed into the soil surface. The seeds and/or vegetative propagules were covered with soil and leveled. The pans were then placed on a bench in the greenhouse and watered either from overheard irrigation or by subirrigation as needed. After the plants reach the desired age (two to three weeks), each pan, is removed individually to a spraying chamber and sprayed by means of an atomizer, operating at a spray pressure of 170.3 kPa […] at the application rates noted. In the spray solution was an amount of an emulsifying agent mixture to give a spray solution or suspension which contains about 0.4% by volume of the emulsifier. The spray solution or suspension contained a sufficient amount of the candidate chemical in order to give application rates of the active ingredient corresponding to those shown in Tables 4 and 5, while applying a total amount of solution or suspension equivalent to 1870 L/Ha (200 gallons/acre). […] The post-emergent herbicidal activity shown in these tables is the percent inhibition of each plant species. Testing with warm season and cool season plants is shown in tables 4a-4d and […], respectively.

Soybean [2] = assay: post-emergence herbicide test; conditions: Glycine max, post-emergence, 0.25 lb/A; read-out: % plant inhibition
Source text: as §1

Velvetleaf [3] = assay: post-emergence herbicide test; conditions: Abutilon theophrasti, post-emergence, 0.25 lb/A; read-out: % plant inhibition
Source text: as §1

Birdseye Speedwell [4] = assay: post-emergence herbicide test; conditions: post-emergence, 0.25 lb/A; read-out: % plant inhibition
Source text: as §1

Downy Brome [5] = assay: post-emergence herbicide test; conditions: Bromus tectorum, post-emergence, 0.25 lb/A; read-out: % plant inhibition
Source text: as §1

Common Chickweed [6] = assay: post-emergence herbicide test; conditions: post-emergence, 0.25 lb/A; read-out: % plant inhibition
Source text: as §1

Wild Oats [7] = assay: post-emergence herbicide test; conditions: Avena fatua, post-emergence, 0.25 lb/A; read-out: % plant inhibition
Source text: as §1

Seedling Johnsongrass = assay: post-emergence herbicide test; conditions: Sorghum halepense, post-emergence, 0.25 lb/A; read-out: % plant inhibition
Source text: as §1

Green Foxtail [8] = assay: post-emergence herbicide test; conditions: Setaria viridis, post-emergence, 0.25 lb/A; read-out: % plant inhibition
Source text: as §1

Corn [9] = assay: post-emergence herbicide test; conditions: Zea mays, post-emergence, 0.25 lb/A; read-out: % plant inhibition
Source text: as §1

Rape [10] = assay: post-emergence herbicide test; conditions: post-emergence, 0.25 lb/A; read-out: % plant inhibition
Source text: as §1

Barnyardgrass [11] = assay: post-emergence herbicide test; conditions: Echinochloa crus-galli, post-emergence, 0.25 lb/A; read-out: % plant inhibition
Source text: as §1

Blackgrass [12] = assay: post-emergence herbicide test; conditions: Alopecurus myosuroides, post-emergence, 0.25 lb/A; read-out: % plant inhibition
Source text: as §1

Morning Glory [13] = assay: post-emergence herbicide test; conditions: Ipomoea, post-emergence, 0.25 lb/A; read-out: % plant inhibition
Source text: as §1

Wheat [14] = assay: post-emergence herbicide test; conditions: Triticum aestivum, post-emergence, 0.25 lb/A; read-out: % plant inhibition
Source text: as §1

Cocklebur [15] = assay: post-emergence herbicide test; conditions: Xanthium strumarium, post-emergence, 0.25 lb/A; read-out: % plant inhibition
Source text: as §1

Giant Foxtail [16] = assay: post-emergence herbicide test; conditions: Setaria faberi, post-emergence, 0.25 lb/A; read-out: % plant inhibition
Source text: as §1

Bedstraw Catchweed [17] = assay: pre-emergence herbicide test; conditions: Galium aparine, pre-emergence, 0.25 lb/A; read-out: % plant inhibition
Description: (§2) Topsoil was placed in an aluminum pan and compacted to a depth of 1.3 to 1.6 cm from the top of the pan. On the top of the soil was placed a predetermined number of seeds of each of several monocotyledonous and dicotyledonous annual plant species and/or vegetative propagules of various perennial plant species. The pan was then level filled with a cover layer of topsoil to which was added a known amount of active ingredient either prior to or after application of the cover layer. The active ingredient was dissolved or suspended in an organic solvent, e.g., acetone, or water as carrier for application to the cover layer. The pans were moved to a greenhouse bench where they were thereafter watered from below as needed to give adequate moisture for germination and growth. In some cases, an initial overhead irrigation of 1/4 inch of water was applied immediately after treatment.
(§3) Approximately 14 days after seeding and treating, the pans were observed and the results (% inhibition) were recorded.
(§4) The tables below summarize the results of the pre-emergence herbicidal activity tests of compounds of this invention tested with warm season plants (Tables 2a-2d) and cool season plants (Tables 3a and 3b). The herbicidal rating shown in these tables is the percent inhibition of each plant species. The plant species usually regarded as weeds are identified in the tables by single letter headings and crop species identified by two letter headings both headings being above the columns in accordance with the following legend: […]

Soybean [18] = assay: pre-emergence herbicide test; conditions: 0.25 lb/A
Description: as §2, §3, §4

Birdseye Speedwell [19] = assay: pre-emergence herbicide test; conditions: pre-emergence, 0.25 lb/A; read-out: % plant inhibition
Description: as §2, §3, §4

Downy Brome [20] = assay: pre-emergence herbicide test; conditions: Bromus tectorum, pre-emergence, 0.25 lb/A; read-out: % plant inhibition
Description: as §2, §3, §4

Common Chickweed [21] = assay: pre-emergence herbicide test; conditions: pre-emergence, 0.25 lb/A; read-out: % plant inhibition
Description: as §2, §3, §4

Wild Oats [22] = assay: pre-emergence herbicide test; conditions: Avena fatua, pre-emergence, 0.25 lb/A; read-out: % plant inhibition
Description: as §2, §3, §4

Green Foxtail [23] = assay: pre-emergence herbicide test; conditions: Setaria viridis, pre-emergence; 0.25 lb/A; read-out: % plant inhibition
Description: as §2, §3, §4

Corn [24] = assay: pre-emergence herbicide test; conditions: 0.25 lb/A; for inhibition at 280.212 g/ha: Zea mays, pre-emergence, read-out: % plant inhibition
Description: as §2, §3, §4

Rape [25] = assay: pre-emergence herbicide test; conditions: pre-emergence, 0.25 lb/A; read-out: % plant inhibition
Description: as §2, §3, §4

Barnyardgrass [26] = assay: pre-emergence herbicide test; conditions: Echinochloa crus-galli, pre-emergence, 0.25 lb/A; read-out: % plant inhibition
Description: as §2, §3, §4

Blackgrass [27] = assay: pre-emergence herbicide test; conditions: Alopecurus myosuroides, pre-emergence, 0.25 lb/A; read-out: % plant inhibition
Description: as §2, §3, §4

Morning Glory [28] = assay: pre-emergence herbicide test; conditions: 0.25 lb/A; for inhibition at 280.212 g/ha: Ipomoea, pre-emergence, read-out: % plant inhibition
Description: as §2, §3, §4

Wheat [29] = assay: pre-emergence herbicide test; conditions: Triticum aestivum, pre-emergence, 0.25 lb/A; read-out: % plant inhibition
Description: as §2, §3, §4

Giant Foxtail [30] = assay: pre-emergence herbicide test; conditions: 0.25 lb/A; for inhibition at 280.212 g/ha: Setaria faberi, pre-emergence, read-out: % plant inhibition
Description: as §2, §3, §4

Velvetleaf [31] = assay: pre-emergence herbicide test; conditions: Abutilon theophrasti, pre-emergence, 0.25 lb/A; read-out: % plant inhibition
Description: as §2, §3, §4

Cocklebur [32] = assay: pre-emergence herbicide test; conditions: Xanthium strumarium, pre-emergence, 0.25 lb/A; read-out: % plant inhibition
Description: as §2, §3, §4

## Cc1c(-c2cc(C(=O)O)c(Cl)cc2F)nn(C)c1C(F)(F)F [Compound 2, 2-Chloro-5-[1,4-dimethyl-5-(trifluoromethyl)-1H-pyrazol-3-yl]-4-fluorobenzoic acid]
Bedstraw Catchweed [1]
  inhibition at 280.212 g/ha: 50%
Soybean [2]
  inhibition at 280.212 g/ha: 20%
Velvetleaf [3]
  inhibition at 280.212 g/ha: 85%
Birdseye Speedwell [4]
  inhibition at 280.212 g/ha: 80%
Downy Brome [5]
  inhibition at 280.212 g/ha: 0%
Common Chickweed [6]
  inhibition at 280.212 g/ha: 70%
Wild Oats [7]
  inhibition at 280.212 g/ha: 0%
Seedling Johnsongrass
  inhibition at 280.212 g/ha: 20%
Green Foxtail [8]
  inhibition at 280.212 g/ha: 15%
Corn [9]
  inhibition at 280.212 g/ha: 3%
Rape [10]
  inhibition at 280.212 g/ha: 0%
Barnyardgrass [11]
  inhibition at 280.212 g/ha: 15%
Blackgrass [12]
  inhibition at 280.212 g/ha: 10%
Morning Glory [13]
  inhibition at 280.212 g/ha: 45%
Wheat [14]
  inhibition at 280.212 g/ha: 0%
Cocklebur [15]
  inhibition at 280.212 g/ha: 70%
Giant Foxtail [16]
  inhibition at 280.212 g/ha: 0%
Bedstraw Catchweed [17]
  inhibition at 280.212 g/ha: 50%
Soybean [18]
  % plant inhibition: 5% and 0%
Birdseye Speedwell [19]
  inhibition at 280.212 g/ha: 55%
Downy Brome [20]
  inhibition at 280.212 g/ha: 25%
Common Chickweed [21]
  inhibition at 280.212 g/ha: 60%
Wild Oats [22]
  inhibition at 280.212 g/ha: 15%
Green Foxtail [23]
  inhibition at 280.212 g/ha: 25%
Corn [24]
  inhibition at 280.212 g/ha: 0%
Rape [25]
  inhibition at 280.212 g/ha: 20%
Barnyardgrass [26]
  inhibition at 280.212 g/ha: 0%
Blackgrass [27]
  inhibition at 280.212 g/ha: 15%
Morning Glory [28]
  % plant inhibition: 30%
  inhibition at 280.212 g/ha: 35%
Wheat [29]
  inhibition at 280.212 g/ha: 7%
Giant Foxtail [30]
  inhibition at 280.212 g/ha: 0%

## CCOC(=O)C(C)OC(=O)c1cc(-c2nn(C)c(C(F)(F)F)c2C)c(F)cc1Cl (stereo not shown) [Compound 20]
Bedstraw Catchweed [1]
  inhibition at 280.212 g/ha: 95%
Soybean [2]
  inhibition at 280.212 g/ha: 35%
Velvetleaf [3]
  inhibition at 280.212 g/ha: 100%
Birdseye Speedwell [4]
  inhibition at 280.212 g/ha: 100%
Downy Brome [5]
  inhibition at 280.212 g/ha: 40%
Common Chickweed [6]
  inhibition at 280.212 g/ha: 98%
Wild Oats [7]
  inhibition at 280.212 g/ha: 45%
Seedling Johnsongrass
  inhibition at 280.212 g/ha: 80%
Green Foxtail [8]
  inhibition at 280.212 g/ha: 25%
Corn [9]
  inhibition at 280.212 g/ha: 8%
Rape [10]
  inhibition at 280.212 g/ha: 25%
Barnyardgrass [11]
  inhibition at 280.212 g/ha: 85%
Blackgrass [12]
  inhibition at 280.212 g/ha: 35%
Morning Glory [13]
  inhibition at 280.212 g/ha: 98%
Wheat [14]
  inhibition at 280.212 g/ha: 22%
Cocklebur [15]
  inhibition at 280.212 g/ha: 90%
Giant Foxtail [16]
  inhibition at 280.212 g/ha: 75%
Bedstraw Catchweed [17]
  inhibition at 280.212 g/ha: 100%
Soybean [18]; Glycine max, pre-emergence, read-out: % plant inhibition
  inhibition at 280.212 g/ha: 5%
Velvetleaf [31]
  inhibition at 280.212 g/ha: 95%
Birdseye Speedwell [19]
  inhibition at 280.212 g/ha: 100%
Downy Brome [20]
  inhibition at 280.212 g/ha: 65%
Common Chickweed [21]
  inhibition at 280.212 g/ha: 100%
Wild Oats [22]
  inhibition at 280.212 g/ha: 25%
Green Foxtail [23]
  inhibition at 280.212 g/ha: 100%
Corn [24]
  % plant inhibition: 10%
  inhibition at 280.212 g/ha: 15%
Rape [25]
  inhibition at 280.212 g/ha: 95%
Blackgrass [27]
  inhibition at 280.212 g/ha: 70%
Morning Glory [28]
  % plant inhibition: 70%
  inhibition at 280.212 g/ha: 85%
Wheat [29]
  inhibition at 280.212 g/ha: 0%
Cocklebur [32]
  inhibition at 280.212 g/ha: 55%
Giant Foxtail [30]
  % plant inhibition: 80%
  inhibition at 280.212 g/ha: 98%
